# According to patent publication US10294229B2, “Heteroaryl substituted aminopyridine compounds” (BRISTOL-MYERS SQUIBB COMPANY, priority 2015, dated 2019):
# Biological target: IRAK4 (Homo sapiens (Human), UniProt Q9NWZ3)
# Test: IRAK4 Inhibition Assay
# Assay type: biochemical
# Settings: ATP 500 μM; IRAK4 0.6 nM
# Procedure: The assays were performed in U-bottom 384-well plates. The final assay volume was 30 μL prepared from 15 μL additions of enzyme and substrates (fluoresceinated peptide and ATP) and test compounds in assay buffer (20 mM HEPES pH 7.2, 10 mM MgCl2, 0.015% Brij 35 and 4 mM DTT). The reaction was initiated by the combination of IRAK4 with substrates and test compounds. The reaction mixture was incubated at room temperature for 60 min. and terminated by adding 45 μL of 35 mM EDTA to each sample. The reaction mixture was analyzed on the Caliper LABCHIP® 3000 (Caliper, Hopkinton, Mass.) by electrophoretic separation of the fluorescent substrate and phosphorylated product. Inhibition data were calculated by comparison to no enzyme control reactions for 100% inhibition and vehicle-only reactions for 0% inhibition. The final concentrations of reagents in the assays are ATP, 500 μM; FL-IPTSPITTTYFFFKKK peptide 1.5 μM; IRAK4, 0.6 nM; and DMSO, 1.6%.
# IRAK4, sequence (Q9NWZ3 whole entry, species assumed): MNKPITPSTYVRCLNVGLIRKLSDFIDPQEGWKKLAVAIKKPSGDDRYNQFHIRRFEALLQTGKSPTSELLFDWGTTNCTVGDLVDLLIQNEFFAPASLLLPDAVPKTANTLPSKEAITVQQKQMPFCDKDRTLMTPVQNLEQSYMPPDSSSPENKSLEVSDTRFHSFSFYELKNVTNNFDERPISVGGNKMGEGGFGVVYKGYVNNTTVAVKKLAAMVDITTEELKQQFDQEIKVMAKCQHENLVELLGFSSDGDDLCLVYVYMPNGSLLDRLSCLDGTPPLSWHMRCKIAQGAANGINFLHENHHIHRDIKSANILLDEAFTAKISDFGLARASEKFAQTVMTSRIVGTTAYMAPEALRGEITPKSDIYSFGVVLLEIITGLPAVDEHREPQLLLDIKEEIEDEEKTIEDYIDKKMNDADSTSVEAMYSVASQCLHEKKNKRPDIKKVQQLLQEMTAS
row,IC50,SMILES
1,7 nM,"CC(C)Nc1cc(-n2cnc3cc(C#N)cnc32)ncc1-c1cn([C@@H]2COC[C@H]2O)nn1 (single isomer, unassigned) [Example 74]"
2,7 nM,"CC(C)Nc1cc(-n2ncc3cc(C#N)cnc32)ncc1-c1cn(CC(O)Cc2ccccc2)nn1 (single isomer, unassigned) [Example 76, 1-(5-(1-(2-hydroxy-3-phenylpropyl)-1H-1,2,3-triazol-4-yl)-4-(isopropylamino)pyridin-2-yl)-1H-pyrazolo [3,4-b]pyridine-5-carbonitrile]"
3,21 nM,"CC(C)Nc1cc(-n2ncc3cc(C#N)cnc32)ncc1-c1cn(CC(O)Cc2ccccc2)nn1 (single isomer, unassigned) [Example 77, 1-(5-(1-(2-hydroxy-3-phenylpropyl)-1H-1,2,3-triazol-4-yl)-4-(isopropylamino)pyridin-2-yl)-1H-pyrazolo [3,4-b]pyridine-5-carbonitrile]"
4,43 nM,"CC(C)Nc1cc(-n2cnc3cc(C#N)cnc32)ncc1-c1cn(CC(O)Cc2ccccc2)nn1 (single isomer, unassigned) [Example 78, 3-(5-(1-(2-hydroxy-3-phenylpropyl)-1H-1,2,3-triazol-4-yl)-4-(isopropylamino)pyridin-2-yl)-3H-imidazo[4,5-b]pyridine-6-carbonitrile]"
5,26 nM,"CC(C)Nc1cc(-n2cnc3cc(C#N)cnc32)ncc1-c1cn(CC(O)Cc2ccccc2)nn1 (single isomer, unassigned) [Example 79, 3-(5-(1-(2-hydroxy-3-phenylpropyl)-1H-1,2,3-triazol-4-yl)-4-(isopropylamino)pyridin-2-yl)-3H-imidazo[4,5-b]pyridine-6-carbonitrile]"
6,21 nM,"CCC(C)(O)Cn1cc(-c2cnc(-n3cnc4cc(C#N)cnc43)cc2NC(C)C)nn1 (single isomer, unassigned) [Example 94, 3-(5-(1-(2-hydroxy-2-methylbutyl)-1H-1,2,3-triazol-4-yl)-4-(isopropylamino)pyridin-2-yl)-3H-imidazo[4,5-b]pyridine-6-carbonitrile]"
7,16 nM,"CCC(C)(O)Cn1cc(-c2cnc(-n3cnc4cc(C#N)cnc43)cc2NC(C)C)nn1 (single isomer, unassigned) [Example 95, 3-(5-(1-(2-hydroxy-2-methylbutyl)-1H-1,2,3-triazol-4-yl)-4-(isopropylamino)pyridin-2-yl)-3H-imidazo[4,5-b]pyridine-6-carbonitrile]"
8,5 nM,"CC(C)Nc1cc(-n2ncc3cc(C#N)cnc32)ncc1-c1cn([C@@H]2CCN(C(=O)C(C)(C)C)C[C@H]2O)nn1 (single isomer, unassigned) [Example 200]"
9,4 nM,"COC(=O)N1CC[C@@H](n2cc(-c3cnc(-n4ncc5cc(C#N)cnc54)cc3NC(C)C)nn2)[C@H](O)C1 (single isomer, unassigned) [Example 201]"
10,5 nM,"COC(=O)N1CC[C@@H](n2cc(-c3cnc(-n4ncc5cc(C#N)cnc54)cc3NC(C)C)nn2)[C@H](O)C1 (single isomer, unassigned) [Example 205]"
11,23 nM,"CC(O)Cc1cn(-c2cnc(-n3ncc4cc(C#N)cnc43)cc2NC2CC2)nn1 (single isomer, unassigned) [Example 274, 1-(4-(cyclopropylamino)-5-(4-(2-hydroxypropyl)-1H-1,2,3-triazol-1-yl)pyridin-2-yl)-1H-pyrazolo[3,4-b]pyridine-5-carbonitrile]"
12,30 nM,"CC(O)Cc1cn(-c2cnc(-n3ncc4cc(C#N)cnc43)cc2NC2CC2)nn1 (single isomer, unassigned) [Example 275, 1-(4-(cyclopropylamino)-5-(4-(2-hydroxypropyl)-1H-1,2,3-triazol-1-yl)pyridin-2-yl)-1H-pyrazolo[3,4-b]pyridine-5-carbonitrile]"
13,25 nM,"CC(F)Cc1cn(-c2cnc(-n3cnc4cc(C#N)cnc43)cc2NC(C)C)nn1 (single isomer, unassigned) [Example 290, 3-(5-(4-(2-fluoropropyl)-1H-1,2,3-triazol-1-yl)-4-(isopropylamino)pyridin-2-yl)-3H-imidazo[4,5-b]pyridine-6-carbonitrile]"
14,29 nM,"CC(F)Cc1cn(-c2cnc(-n3ncc4cc(C#N)cnc43)cc2NC(C)C)nn1 (single isomer, unassigned) [Example 292, 1-(5-(4-(2-fluoropropyl)-1H-1,2,3-triazol-1-yl)-4-(isopropylamino)pyridin-2-yl)-1H-pyrazolo[3,4-b]pyridine-5-carbonitrile]"
15,28 nM,"CC(F)Cc1cn(-c2cnc(-n3cnc4cnc(N)nc43)cc2NC(C)C)nn1 (single isomer, unassigned) [Example 293, 9-(5-(4-(2-fluoropropyl)-1H-1,2,3-triazol-1-yl)-4-(isopropylamino)pyridin-2-yl)-9H-purin-2-amine]"
16,7 nM,"CC(C)Nc1cc(-n2ccc3cncnc32)ncc1-c1cn(Cc2cc(=O)[nH]c(=O)[nH]2)nn1 [Example 8, 6-((4-(4-(isopropylamino)-6-(7H-pyrrolo[2,3-d]pyrimidin-7-yl)pyridin-3-yl)-1H-1,2,3-triazol-1-yl)methyl)pyrimidine-2,4(1H,3H)-dione]"
17,3 nM,"CC(C)Nc1cc(-n2ccc3cncnc32)ncc1-c1cn(CCOCCOCCOCCO)nn1 [Example 9, 2-(2-(2-(2-(4-(4-(isopropylamino)-6-(7H-pyrrolo[2,3-d]pyrimidin-7-yl)pyridin-3-yl)-1H-1,2,3-triazol-1-yl)ethoxy)ethoxy)ethoxy) ethanol]"
18,7 nM,"CC(C)Nc1cc(-n2ncc3cc(C#N)cnc32)ncc1-c1cn(C2COC2)nn1 [Example 15, 1-(4-(isopropylamino)-5-(1-(oxetan-3-yl)-1H-1,2,3-triazol-4-yl)pyridin-2-yl)-1H-pyrazolo[3,4-b]pyridine-5-carbonitrile]"
19,17 nM,"CC(C)Nc1cc(-n2ncc3cc(C#N)cnc32)ncc1-c1cn(C(C)(C)C)nn1 [Example 18, 1-(5-(1-(tert-butyl)-1H-1,2,3-triazol-4-yl)-4-(isopropylamino)pyridin-2-yl)-1H-pyrazolo[3,4-b]pyridine-5-carbonitrile]"
20,1 nM,"CC(C)Nc1cc(-n2ncc3cc(C#N)cnc32)ncc1-c1cn(C2CCOCC2)nn1 [Example 19, 1-(4-(isopropylamino)-5-(1-(tetrahydro-2H-pyran-4-yl)-1H-1,2,3-triazol-4-yl)pyridin-2-yl)-1H-pyrazolo[3,4-b]pyridine-5-carbonitrile]"
21,96 nM,"CC(C)Nc1cc(-n2cnc3cc(C#N)cnc32)ncc1-c1cn(C(C)(C)C)nn1 [Example 23, 3-(5-(1-(tert-butyl)-1H-1,2,3-triazol-4-yl)-4-(isopropylamino)pyridin-2-yl)-3H-imidazo[4,5-b]pyridine-6-carbonitrile]"
22,3 nM,"CC(C)Nc1cc(-n2cnc3cc(C#N)cnc32)ncc1-c1cn(C2CCOCC2)nn1 [Example 24, 3-(4-(isopropylamino)-5-(1-(tetrahydro-2H-pyran-4-yl)-1H-1,2,3-triazol-4-yl)pyridin-2-yl)-3H-imidazo[4,5-b]pyridine-6-carbonitrile]"
23,27 nM,"CC(C)Nc1cc(-n2ncc3cc(Cl)cnc32)ncc1-c1cn(C2COC2)nn1 [Example 26, 2-(5-chloro-1H-pyrazolo[3,4-b]pyridin-1-yl)-N-isopropyl-5-(1-(oxetan-3-yl)-1H-1,2,3-triazol-4-yl)pyridin-4-amine]"
24,16 nM,"CC(C)Nc1cc(-n2ncc3cc(Cl)cnc32)ncc1-c1cn(CC2CC2)nn1 [Example 27, 2-(5-chloro-1H-pyrazolo [3,4-b]pyridin-1-yl)-5-(1-(cyclopropylmethyl)-1H-1,2,3-triazol-4-yl)-N-isopropylpyridin-4-amine]"
25,11 nM,"CCCn1cc(-c2cnc(-n3ncc4cc(Cl)cnc43)cc2NC2CC2)nn1 [Example 36, 2-(5-chloro-1H-pyrazolo[3,4-b]pyridin-1-yl)-N-cyclopropyl-5-(1-propyl-1H-1,2,3-triazol-4-yl)pyridin-4-amine]"
26,10 nM,"CCn1cc(-c2cnc(-n3cnc4cc(C#N)cnc43)cc2NC(C)C)nn1 [Example 38, 3-(5-(1-ethyl-1H-1,2,3-triazol-4-yl)-4-(isopropylamino)pyridin-2-yl)-3H-imidazo[4,5-b]pyridine-6-carbonitrile]"
27,6 nM,"CCCn1cc(-c2cnc(-n3cnc4cc(C#N)cnc43)cc2NC2CC2)nn1 [Example 43, 3-(4-(cyclopropylamino)-5-(1-propyl-1H-1,2,3-triazol-4-yl)pyridin-2-yl)-3H-imidazo[4,5-b]pyridine-6-carbonitrile]"
28,8 nM,"CC(C)Nc1cc(-n2cnc3cc(C#N)cnc32)ncc1-c1cn(CCCF)nn1 [Example 45, 3-(5-(1-(3-fluoropropyl)-1H-1,2,3-triazol-4-yl)-4-(isopropylamino)pyridin-2-yl)-3H-imidazo[4,5-b]pyridine-6-carbonitrile]"
29,16 nM,"CC(C)Nc1cc(-n2ncc3cc(C#N)cnc32)ncc1-c1cn(CC#N)nn1 [Example 47, 1-(5-(1-(cyanomethyl)-1H-1,2,3-triazol-4-yl)-4-(isopropylamino)pyridin-2-yl)-1H-pyrazolo[3,4-b]pyridine-5-carbonitrile]"
30,5 nM,"CCCn1cc(-c2cnc(-n3cnc4cc(C#N)cnc43)cc2NC2CCOCC2)nn1 [Example 50, 3-(5-(1-propyl-1H-1,2,3-triazol-4-yl)-4-((tetrahydro-2H-pyran-4-yl)amino)pyridin-2-yl)-3H-imidazo[4,5-b]pyridine-6-carbonitrile]"
